From US20260248765A1, “TIME RELEASE SLEEP AID SYSTEM” (NightWise, LLC, priority 2017, published 2026)

Experiment: Release time based on dissolution times of each ingredient in water
Type: physicochemical
Conditions: soft chew composition of Table 2
Procedure: The release time was determined based on dissolution times of each ingredient in water.

**Q.** With N[C@@H](Cc1c[nH]c2ccc(O)cc12)C(=O)O [5-Hydroxytryptophan] as the compound, how does the “Release Time” value read?
**A.** 0 min

**Q.** For NCC(=O)[O-].NCC(=O)[O-].[Mg+2] [Magnesium Glycinate], which “Release Time” value is on record?
**A.** 0 min

**Q.** For COc1ccc2[nH]cc(CCNC(C)=O)c2c1 [Melatonin, reference compound], which “Release Time” value is on record?
**A.** 0 min

**Q.** With NCCCC(=O)O [PHARMAGABA ™] as the compound, how does the “Release Time” value read?
**A.** 0 min

**Q.** For CN1c2c(nc(N)[nH]c2=O)NC[C@@H]1CNc1ccc(C(=O)N[C@@H](CCC(=O)O)C(=O)O)cc1.N[C@H]1C(O)O[C@H](CO)[C@@H](O)[C@@H]1O [QUATREFOLIC ™, (6S)-5-methyltetrahydrofolic acid, glucosamine salt], which “Release Time” value is on record?
**A.** 0 min

**Q.** For Cc1cc2nc3c(=O)[nH]c(=O)nc-3n(C[C@H](O)[C@H](O)[C@H](O)COP(=O)([O-])O)c2cc1C.[Na+] [Riboflavin 5′-Phosphate Sodium], which “Release Time” value is on record?
**A.** 0 min

**Q.** For Cc1ncc(COP(=O)(O)O)c(C=O)c1O.O [Vitamin B6, pyridoxal-5-phosphate monohydrate], which “Release Time” value is on record?
**A.** 0 min

**Q.** Which “Release Time” value does the source give for C/C1=C2/[N-][C@H]([C@H](CC(N)=O)[C@@]2(C)CCC(=O)NC[C@@H](C)OP(=O)([O-])O[C@H]2[C@@H](O)[C@@H](n3cnc4cc(C)c(C)cc43)O[C@@H]2CO)[C@]2(C)N=C(/C(C)=C3N=C(/C=C4N=C1[C@@H](CCC(N)=O)C\4(C)C)[C@@H](CCC(N)=O)[C@]\3(C)CC(N)=O)[C@@H](CCC(N)=O)[C@]2(C)CC(N)=O.[CH3-].[Co+3] [Vitamin B12, methylcobalamin] here?
**A.** 0 min
